Reference: ChEMBL document CHEMBL1150749, “Novel Cleistanthane Diterpenoids from Pogostemon auricularis” (1988)

Columns and labels:
Type in all cases: functional
Conditions in all cases: Cavia porcellus
[1] = system: Ileum; assay: Inhibition of spasmogen response in guinea pig ileum at 2.5 ug/mL
[2] = system: Ileum; assay: Inhibition of spasmogen response in guinea pig ileum at 10 ug/mL
[3] = system: Ileum; assay: Inhibition of spasmogen response in guinea pig ileum at 5 ug/mL

C=C[C@H]1C(=C)CC[C@H]2[C@H]1[C@@H](OC(C)=O)C[C@@H]1[C@]2(C)CCC[C@@]1(C)C(=O)O
inhibition at 2.5 µg/mL [1]: 10%
inhibition at 10 µg/mL [2]: 69%
inhibition at 5 µg/mL [3]: 19%
